Publication PMC9295539 (Antimicrobial Agents and Chemotherapy, 2022)
Like-named read-outs stand apart in the source and are kept apart here.

Experiments:
[1] = system: Giardia lamblia GS clone H7; assay: G. lamblia GS clone H7 trophozoite growth, ATP-based bioluminescence assay (BacTiter-Glo), 1,536-well; assay type: cell-based; conditions: for Selectivity index (CC50/EC50): HEK293T CC50 / G. lamblia GS clone H7 EC50
Protocol: (§1) Compounds were screened at 5 μM with metronidazole (40 μM) as an inhibitor control and dimethyl sulfoxide (DMSO) as a neutral control. […] These primary hits were immediately assayed for reconfirmation and mammalian cytotoxicity against HEK293T cells in an 8-point dose-response format.
The primary screen was conducted at 5 μM. […] All source plates were 384-well acoustic, transfer-compatible plates with compounds prediluted in DMSO at either 2 mM or 10 mM. […] Primary screening was done with a single replicate, whereas dose-response testing was carried out in triplicate.
To prevent attachment to the bottle and tubing of the dispenser cassette, the bottle containing the culture was kept on ice throughout the dispensing process. […] The bags were heat sealed and the anaerobic generator was activated according to the manufacturer’s instructions. […] Luminescence was read on a ViewLux uHTS microplate imager (PerkinElmer) with medium-sensitivity luminescence at 30 s of exposure.
(§2) Relative luminescence unit (RLU) values were analyzed in Genedata Screener (v13.0-Standard). RLU values were normalized to neutral controls minus inhibitors (DMSO-treated wells minus metronidazole-treated wells). For single-point primary assay plates, an additional run-wise median correction was applied to reduce screen artifacts, whereas no corrections were applied to triplicate dose-response plates. For the mammalian cytotoxicity assays, RLU values were uploaded into Genedata Screener, and the data were normalized to those for DMSO-treated wells minus puromycin-treated wells.

[2] = HEK293T cytotoxicity counterscreen, luminescent ATP viability assay; conditions: human
Protocol: as §1
(§3) Experimental details for the assays were described previously ([50]). […] Assays were performed as previously reported ([51]).
as §2

[3] = system: G. lamblia CBG99 (assemblage A); assay: G. lamblia CBG99 luciferase strain cell growth inhibition assay; assay type: cell-based, Giardia lamblia; conditions: for inhibition of G. lamblia growth / inhibition at 5 µM: G. lamblia CBG99, compound at 5 μM; for inhibition at 5 µM / EC50: Giardia duodenalis; for EC50: assemblage A, read-out: EC50 against G. lamblia strain CBG99
Protocol: Subsequent assays, including the mouse model of infection, used the G. lamblia click beetle green (CBG99) strain, which was grown and assayed as previously described ([11], [49]).
In vitro reconfirmation and expanded tests against EGFR-TKIs using the G. lamblia CBG99 strain were performed as previously described ([11]). […] The PK studies were performed in groups of 3 mice per compound. […] All animal experiments were approved by the Institutional Animal Care and Use Committees at the University of Washington.

HEK293T cells = assay: in vitro
Protocol: as §1, §3, §2

[4] = system: metronidazole-resistant 713-M3 strain; assay: Metronidazole-resistant G. lamblia 713-M3 cell growth inhibition assay; assay type: cell-based; conditions: Giardia duodenalis, read-out: EC50 against G. lamblia strain 713-M3
[5] = system: G. lamblia WB6 (assemblage A); assay: G. lamblia WB6 cell growth inhibition assay; assay type: cell-based; conditions: Giardia duodenalis, read-out: EC50 against G. lamblia strain WB6
[6] = Giardia duodenalis, 48 h, 8-point dose response, triplicate, read-out: 48-h Giardia GS clone H7 EC50
[7] = 48 h, 8-point dose response, triplicate, read-out: 48-h Giardia GS clone H7 EC50
[8] = Giardia duodenalis, Table 2, assemblage B, read-out: EC50 against G. lamblia strain GS clone 7

Compound | EC50 [1, 6] | Selectivity index (CC50/EC50) [1] | CC50 at 72 h ([2]; HEK293T cells) | other results
O=[N+]([O-])c1ccc(-c2nc3ccccc3[nH]2)o1 [2-(5-Nitro-2-furyl) benzimidazole] | 5.8 ± 0.13 µM | >4 | > 25 µM | –
N#CC(C#N)=Cc1ccc(O)c(O)c1 [AG-18] | – | – | – | inhibition of G. lamblia growth [3]: ≤ 50%
N#C/C(=C\c1ccc(O)c(O)c1)C(=O)NCc1ccccc1 [AG-490] | – | – | – | inhibition of G. lamblia growth [3]: ≤ 50%
COc1cc2ncnc(Nc3cccc(Cl)c3)c2cc1OC [AG-1478] | – | – | – | inhibition of G. lamblia growth [3]: ≤ 50%
CNC(=O)CN1CCC(Oc2cc3c(Nc4cccc(Cl)c4F)ncnc3cc2OC)CC1 [AZD8931] | – | – | – | inhibition at 5 µM [3]: ≤ 50%
Cn1c([N+](=O)[O-])cnc1C(O)c1cc(C(C)(C)C)ccc1O (stereo not shown) [Abunidazole] | – | – | – | EC50 [1, 7]: 1.08 ± 0.02 µM; CC50 (HEK293T cells): > 25 µM
CC(=O)Nc1ncc([N+](=O)[O-])s1 [Aminitrozole] | 7.11 ± 0.28 µM | >3 | > 25 µM | –
Cn1c([N+](=O)[O-])cnc1/C=C/c1ccnc(N)n1 [Azanidazole] | 0.72 ± 0.06 µM | >35 | > 25 µM | –
Cc1ncc([N+](=O)[O-])n1CCOC(=O)c1ccccc1 [Benzoyl metronidazole] | 2.43 ± 0.23 µM | >10 | > 25 µM | –
CS(=O)(=O)Nc1ccc(C(=O)O[C@@H](Cc2c(Cl)c[n+]([O-])cc2Cl)c2ccc(OC(F)F)c(OCC3CC3)c2)cc1OCC1CC1 [CHF-6001] | 2.03 ± 0.1 µM | >12 | > 25 µM | –
COC(=S)NCCn1c([N+](=O)[O-])cnc1C [Carnidazole] | 3.01 ± 0.06 µM | >8 | > 25 µM | –
CSc1ccc(OCc2ncc([N+](=O)[O-])n2C)cc1 [Fexinidazole] | 6.39 ± 0.16 µM | >4 | > 25 µM | –
Cc1ncc([N+](=O)[O-])n1CCO [Metronidazole] | 7.12 ± 0.06 µM | >3 | – | EC50 [1, 8]: 7.12 ± 0.06 µM; EC50 [4]: > 25 µM; EC50 ([5]; assemblage A): 2.33 ± 0.06 µM; EC50 [3]: 2.87 ± 0.34 µM; CC50 at 72 h [2]: > 25 µM
Cn1c([N+](=O)[O-])cnc1/C=N/N1CC(CN2CCOCC2)OC1=O (stereo not shown) [Moxnidazole] | 6.11 ± 0.11 µM | >4 | > 25 µM | –
O=C1NCCN1c1ncc([N+](=O)[O-])s1 [Niridazole] | 6.42 ± 0.06 µM | >4 | – | CC50 at 72 h [2]: > 25 µM
CC(=O)Oc1ccccc1C(=O)Nc1ncc([N+](=O)[O-])s1 [Nitazoxanide] | 6.45 ± 0.11 µM | >4 | > 25 µM | –
Cc1ncc([N+](=O)[O-])n1CC(O)CCl (stereo not shown) [Ornidazole] | 1.82 ± 0.04 µM | >14 | – | CC50 at 72 h [2]: > 25 µM

Compound | EC50 [1, 6] | Selectivity index (CC50/EC50) [1] | CC50 at 72 h ([2]; HEK293T cells) | other results
COc1cc2ncnc(Nc3cccc(Br)c3)c2cc1OC.Cl [PD153035-HCl] | – | – | – | inhibition of G. lamblia growth [3]: ≤ 50%
C=CC(=O)Nc1ccc2ncnc(Nc3cccc(Br)c3)c2c1 [PD168393] | – | – | – | inhibition of G. lamblia growth [3]: ≤ 50%
CS(=O)(=O)OCCN(CCBr)c1c(C(=O)NCCOP(=O)(O)O)cc([N+](=O)[O-])cc1[N+](=O)[O-] [PR-104] | – | >13 | – | EC50 ([1]; Giardia duodenalis, 48 h, read-out: 48-h Giardia GS clone H7 EC50): 1.98 ± 0.07 µM; CC50 at 72 h [2]: > 25 µM
Cc1ncc([N+](=O)[O-])n1CCc1ccncc1 [Panidazole] | 1.85 ± 0.68 µM | >14 | > 25 µM | –
CC(=O)C[C@H]1CCCCN1 [Pelletierine] | 20.3 ± 0.07 µM | >1 | – | EC50 [1, 8]: 20.3 ± 0.07 µM; EC50 [4]: > 25 µM; EC50 [5]: > 25 µM; EC50 [3]: > 25 µM; CC50 [2]: > 25 µM
CCOC(=O)/C(=C/c1ncc([N+](=O)[O-])n1C)C(C)=O [Propenidazole] | – | – | – | EC50 [1, 7]: 2.55 ± 0.04 µM; CC50 (HEK293T cells): 16.9 ± 0.05 µM
CCCN(CCC)c1ccc(/N=N/c2ccccc2C(=O)O)cc1 [Propyl red] | 5.78 ± 0.07 µM | >4 | > 25 µM | –
Cn1c([N+](=O)[O-])cnc1N1CCN(S(C)(=O)=O)C1=O [Satranidazole] | 2.49 ± 0.04 µM | >10 | > 25 µM | –
Cc1ncc([N+](=O)[O-])n1CC(C)O (stereo not shown) [Secnidazole] | 6.57 ± 0.09 µM | >4 | – | CC50 at 72 h [2]: > 25 µM
CCS(=O)(=O)CCn1c([N+](=O)[O-])cnc1C [Tinidazole] | 5.7 ± 0.08 µM | >4 | – | CC50 at 72 h [2]: > 25 µM
CN(C)C/C=C/C(=O)Nc1cc2c(Nc3ccc(F)c(Cl)c3)ncnc2cc1O[C@H]1CCOC1 [afatinib] | – | – | – | inhibition at 5 µM [3]: ≤ 50%
C=CC(=O)Nc1cccc(Oc2nc(Nc3ccc(N4CCN(C)CC4)c(F)c3)nc3[nH]ccc23)c1.O=C(O)/C=C\C(=O)O [avitinib maleate] | – | – | – | inhibition of G. lamblia growth [3]: ≤ 50%
COc1cc2ncnc(Nc3ccc(F)c(Cl)c3)c2cc1NC(=O)/C=C/CN1CCCCC1 [dacomitinib] | – | – | – | inhibition at 5 µM [3]: ≤ 50%
C#Cc1cccc(Nc2ncnc3cc(OCCOC)c(OCCOC)cc23)c1 [erlotinib] | – | – | – | inhibition at 5 µM [3]: ≤ 50%
CS(=O)(=O)CCNCc1ccc(-c2ccc3ncnc(Nc4ccc(OCc5cccc(F)c5)c(Cl)c4)c3c2)o1 [lapatinib ditosylate] | – | – | – | inhibition at 5 µM [3]: ≤ 50%
CCOc1cc2ncc(C#N)c(Nc3ccc(OCc4ccccn4)c(Cl)c3)c2cc1NC(=O)/C=C/CN(C)C [neratinib] | – | – | – | inhibition at 5 µM [3]: ≤ 50%
C=CC(=O)Nc1cccc(Nc2nc(Nc3ccc(N4CCN(C(C)=O)CC4)cc3OC)ncc2C(F)(F)F)c1 [rociletinib] | – | – | – | inhibition at 5 µM [3]: ≤ 50%
